Data set [1] deals with Histone deacetylase 1 (Homo sapiens, UniProt Q13547). Briefly: Inhibition of human HDAC1 incubated for 10 mins followed by fluorogenic substrate addition by fluorescence based analysis.
In data set [2] the test system is DU-145. Briefly: Antiproliferative activity against human DU-145 cells incubated for 96 hrs by MTT assay. In kind it is functional, cell-based. Particulars: DU-145, 96 h. (In general: Tetrazolium dyes change colour on reduction, which living cells bring about.)
Data set [3] has as its system PC-3. Briefly: Antiproliferative activity against human PC-3 cells incubated for 96 hrs by MTT assay. The class given is functional, cell-based. Particulars: PC-3, 96 h.
Data set [4] concerns DU-145. As to the kind of experiment: Induction of apoptosis in human DU-145 cells assessed as apoptotic rate at 1.6 uM measured after 72 hrs by annexin V-FITC and PI staining based flow cytometry analysis relative to control. The class given is functional. For orientation: Flow cytometry measures light scatter and fluorescence of single cells or particles in a stream.
Data set [5] concerns DU-145. Briefly: Downregulation of HDAC6 expression in human DU-145 cells at 0.8 uM incubated for 24 hrs by Western blot analysis. In kind it is functional, cell-based. A general note: In western blotting, separated proteins are transferred to a membrane and probed.
The nature of data set [6]: Toxicity in Balb/c mouse assessed as effect on body weight at 8 mg/kg, ip measured upto 40 days. Particulars: in vivo, 960 h, time < 40 day. The class given is organism-based.
For data set [7], the system named is DU-145. As to the kind of experiment: Antitumor activity against human DU-145 cells xenografted in Balb/c nude mouse model assessed as tumor growth inhibition at 8 mg/kg, ip administered once daily for 40 days relative to control. Particulars: DU-145, 960 h, time 40 day, read-out: TGI. In kind it is functional.
The nature of data set [8]: Toxicity in Balb/c mouse assessed as mortality at 8 mg/kg, ip measured upto 40 days. The class given is organism-based. Particulars: in vivo, 960 h, time < 40 day.
Data set [9] has as its system HT-29. Briefly: Antiproliferative activity against human HT-29 cells incubated for 96 hrs by MTT assay. In kind it is functional, cell-based. Particulars: HT-29, 96 h.
Data set [10] has as its system MCF7. Briefly: Antiproliferative activity against human MCF7 cells incubated for 96 hrs by MTT assay. The class given is functional, cell-based. Particulars: MCF7, 96 h.
Data set [11] has as its system HCT-116. Briefly: Antiproliferative activity against human HCT-116 cells incubated for 96 hrs by MTT assay. Particulars: HCT-116, 96 h. In kind it is functional, cell-based.
For data set [12], the target named is Histone deacetylase 11 (Homo sapiens, UniProt Q96DB2). As to the kind of experiment: Inhibition of human HDAC11 incubated for 10 mins followed by fluorogenic substrate addition by fluorescence based analysis.
Data set [13] deals with A549. As to the kind of experiment: Antiproliferative activity against human A549 cells incubated for 96 hrs by MTT assay. The class given is functional, cell-based. Particulars: A549, 96 h.
In data set [14] the test system is NCI-H1650. Briefly: Antiproliferative activity against human NCI-H1650 cells incubated for 96 hrs by MTT assay. Particulars: NCI-H1650, 96 h. The class given is functional, cell-based.
Data set [15] relates to NCI-H446. As to the kind of experiment: Antiproliferative activity against human NCI-H446 cells incubated for 96 hrs by MTT assay. In kind it is functional, cell-based. Particulars: NCI-H446, 96 h.
Data set [16] has as its system MDA-MB-231. As to the kind of experiment: Antiproliferative activity against human MDA-MB-231 cells incubated for 96 hrs by MTT assay. In kind it is functional, cell-based. Particulars: MDA-MB-231, 96 h.
The target of data set [17] is Polyamine deacetylase HDAC10 (Homo sapiens, UniProt Q969S8). Briefly: Inhibition of human HDAC10 incubated for 10 mins followed by fluorogenic substrate addition by fluorescence based analysis.
Data set [18] concerns LNCaP. Briefly: Antiproliferative activity against human LNCaP cells incubated for 96 hrs by MTT assay. In kind it is functional, cell-based.

pIC50: −log10 of the molar value. Active and inactive are the calls of the source. The rule behind the calls is not given here.

Sequence of Histone deacetylase 1 (Q13547 whole entry): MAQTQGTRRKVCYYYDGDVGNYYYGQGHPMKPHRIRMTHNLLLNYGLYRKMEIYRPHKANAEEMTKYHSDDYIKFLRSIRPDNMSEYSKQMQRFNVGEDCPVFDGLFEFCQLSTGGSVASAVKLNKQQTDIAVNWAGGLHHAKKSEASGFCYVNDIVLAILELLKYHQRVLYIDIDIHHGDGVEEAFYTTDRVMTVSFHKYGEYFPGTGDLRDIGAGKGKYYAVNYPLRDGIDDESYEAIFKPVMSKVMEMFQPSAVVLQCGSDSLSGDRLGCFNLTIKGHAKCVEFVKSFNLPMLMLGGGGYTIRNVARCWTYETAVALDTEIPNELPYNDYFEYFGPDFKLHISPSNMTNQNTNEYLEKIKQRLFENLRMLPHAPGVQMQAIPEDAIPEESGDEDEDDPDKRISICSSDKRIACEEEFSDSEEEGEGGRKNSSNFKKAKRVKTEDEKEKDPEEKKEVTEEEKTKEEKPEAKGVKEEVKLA
Sequence of Polyamine deacetylase HDAC10 (Q969S8 whole entry): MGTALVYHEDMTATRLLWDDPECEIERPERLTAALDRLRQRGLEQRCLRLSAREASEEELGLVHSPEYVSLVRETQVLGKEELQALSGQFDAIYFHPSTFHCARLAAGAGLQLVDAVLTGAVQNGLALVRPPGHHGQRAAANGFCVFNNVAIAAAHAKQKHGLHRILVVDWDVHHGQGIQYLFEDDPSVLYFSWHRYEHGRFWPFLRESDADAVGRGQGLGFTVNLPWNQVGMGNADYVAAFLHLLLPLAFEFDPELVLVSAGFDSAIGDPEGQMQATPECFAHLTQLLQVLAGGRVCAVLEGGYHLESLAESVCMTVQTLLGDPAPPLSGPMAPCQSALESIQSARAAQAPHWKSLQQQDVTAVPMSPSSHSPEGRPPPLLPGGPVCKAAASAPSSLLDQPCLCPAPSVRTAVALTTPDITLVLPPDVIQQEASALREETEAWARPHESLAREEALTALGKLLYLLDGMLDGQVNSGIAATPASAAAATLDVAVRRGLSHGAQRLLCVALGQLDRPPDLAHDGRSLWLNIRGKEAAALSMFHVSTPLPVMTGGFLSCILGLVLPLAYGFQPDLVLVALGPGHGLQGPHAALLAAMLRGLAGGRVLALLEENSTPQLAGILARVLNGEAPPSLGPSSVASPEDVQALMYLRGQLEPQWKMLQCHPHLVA
Sequence of Histone deacetylase 11 (Q96DB2 whole entry): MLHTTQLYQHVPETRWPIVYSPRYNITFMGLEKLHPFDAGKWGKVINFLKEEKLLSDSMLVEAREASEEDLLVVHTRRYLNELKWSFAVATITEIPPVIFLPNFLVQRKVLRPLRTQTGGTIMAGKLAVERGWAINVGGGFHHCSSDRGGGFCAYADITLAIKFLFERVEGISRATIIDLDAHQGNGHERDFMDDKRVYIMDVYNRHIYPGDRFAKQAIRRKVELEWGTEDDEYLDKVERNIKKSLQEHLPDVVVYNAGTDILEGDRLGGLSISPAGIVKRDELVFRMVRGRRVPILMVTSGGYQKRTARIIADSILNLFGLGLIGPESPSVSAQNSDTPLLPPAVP

What is called pIC50 is −log10 of the IC50, conventionally taken in molar units. Low values mean a high IC50, high ones a low IC50. As to `O=C(CCCCCCN1C(=O)C/C(=C\c2ccc(C(F)(F)F)cc2)C1=O)NO`, the negative logarithm of the IC50 (pIC50) in data set [1] was 7.47; in data set [2], 5.91; in [3], 5.74.
The like results for `COc1ccc(/C=C2\CC(=O)N(CCCCCCC(=O)NO)C2=O)cc1` were, in that order, 7.89, 6.30 and 6.05.
The like results for `O=C(CCCN1C(=O)C/C(=C\c2ccccc2)C1=O)NO` were, in that order, 6.74, less than 4.70 and less than 4.70.
Regarding `O=C(CCCCCCC(=O)Nc1ccccc1)NO` [VORINOSTAT], the Activity in data set [4] is given as 73.76%. Besides, in [5], the result was Active.
Turning to `O=C(CCCCCCCN1C(=O)C/C(=C\c2ccccc2)C1=O)NO`, the negative logarithm of the IC50 (pIC50) was 7.60 in data set [1], 5.81 in data set [2] and 5.30 in data set [3].
Turning to `O=C(CCCCCCN1C(=O)C/C(=C\c2ccccc2O)C1=O)NO`, the pIC50 in data set [1] was 7.71; in [2] it was 5.76; in data set [3] it was 5.71.
Taken in the same sequence, the figures for `COc1ccc(Br)cc1/C=C1\CC(=O)N(CCCCCCC(=O)NO)C1=O` were 7.11, 6.34 and 5.95.
Consider `O=C(CCCCCN1C(=O)C/C(=C\c2ccccc2)C1=O)NO`, for which the pIC50 is 7.49 in [1], 5.83 in data set [2] and 5.37 in data set [3].
Taken in the same sequence, the figures for `CC(C)c1ccc(/C=C2\CC(=O)N(CCCCCCC(=O)NO)C2=O)cc1` were 7.54, 5.87 and 5.74.
Taken in the same sequence, the figures for `O=C(NO)c1ccc(CN2C(=O)C/C(=C\c3ccccc3)C2=O)cc1` were 7.48, 5.60 and 5.11.
Taken in the same sequence, the figures for `COc1ccc(/C=C2\CC(=O)N(CCCCCCC(=O)NO)C2=O)cc1OC` were 7.61, 6.35 and 6.06.
On to `C=C(CC(N)=O)C(N)=O`, for which the pIC50 in data set [2] is 4.83; in data set [3], 5.00.
`Cc1ccccc1/C=C1\CC(=O)N(CCCCCCC(=O)NO)C1=O`: the negative logarithm of the IC50 (pIC50) in [1] was 7.66; in data set [2], 6.15; in data set [3] it was 6.03.
Taken in the same sequence, the figures for `Nc1cc(F)ccc1NC(=O)CCCCCCN1C(=O)C/C(=C\c2ccccc2)C1=O` were 6.84, less than 4.70 and less than 4.70.
As for `O=C(CCCCCCN1C(=O)C/C(=C\c2cccs2)C1=O)NO`, the pIC50 in [1] was 7.60; in data set [2], 6.27; in [3], 6.04.
Turning to `CC(=O)O[C@@]12CO[C@@H]1C[C@H](O)[C@@]1(C)C(=O)[C@H](O)C3=C(C)[C@@H](OC(=O)[C@H](O)[C@@H](NC(=O)OC(C)(C)C)c4ccccc4)C[C@@](O)([C@@H](OC(=O)c4ccccc4)[C@H]21)C3(C)C` [DOCETAXEL ANHYDROUS], the Activity entry in data set [6] and in data set [8] was “Toxic” each time. For the same compound, in data set [7], the inhibition in vivo at 8 mg/kg was 13.3%.
As for `Nc1cc(F)ccc1NC(=O)CCCN1C(=O)C/C(=C\c2ccccc2)C1=O`, the values for the negative-log IC50 (pIC50) in data set [1], in [2] and in data set [3] were 6.64, less than 4.70 and less than 4.70, respectively.
As for `Nc1cc(F)ccc1NC(=O)CCCCN1C(=O)C/C(=C\c2ccccc2)C1=O`, the results for the pIC50 in data set [1], in [2] and in data set [3] were 6.76, less than 4.70 and less than 4.70, respectively.
For `O=C(CCCCCCN1C(=O)C/C(=C\c2cccc(I)c2)C1=O)NO`, the pIC50 is 7.54 in data set [1], 6.04 in data set [2] and 5.83 in data set [3].
For `Nc1cc(F)ccc1NC(=O)c1ccc(CNC(=O)/C=C/c2cccnc2)cc1` [TUCIDINOSTAT], the pIC50 was 5.34 in data set [9]; less than 4.70 in data set [10]; 6.04 in [11]; less than 5.30 in [12]; 5.83 in data set [2]; 5.01 in [13]. Also, the negative logarithm of the IC50 (pIC50) in [14] was less than 4.70; in [15] it was 6.62; in data set [16] it was 5.73; in data set [17], 6.34; in data set [18] it was 5.54; in [3] it was 5.24.
For `O=C(CCCCCCN1C(=O)C/C(=C\c2ccc(Cl)cc2)C1=O)NO`, the results for the negative-log IC50 (pIC50) in data set [1], in [2] and in data set [3] were 7.63, 6.24 and 6.05, respectively.
The like results for `N#Cc1ccccc1/C=C1\CC(=O)N(CCCCCCC(=O)NO)C1=O` were, in that order, 7.40, 6.13 and 6.06.
Taken in the same sequence, the figures for `O=C(CCCCCCN1C(=O)C/C(=C\c2cccc(F)c2)C1=O)NO` were 7.12, 6.18 and 6.05.
Taken in the same sequence, the figures for `O=C(CCCCCCN1C(=O)C/C(=C\c2cccc(Br)c2)C1=O)NO` were 7.72, 6.19 and 5.97.
`O=C(CCCCCCN1C(=O)C/C(=C\c2ccccc2)C1=O)NO`: the negative-log IC50 (pIC50) in data set [1] is 7.89; in data set [2], 6.30; in [3], 6.09.
`CCOc1ccccc1/C=C1\CC(=O)N(CCCCCCC(=O)NO)C1=O`: the pIC50 in data set [1] was 7.78; in data set [2] it was 6.47; in [3] it was 6.05.
In the case of `O=C(CCCCCCN1C(=O)C/C(=C\c2cccc(Cl)c2)C1=O)NO`, the pIC50 is 7.73 in data set [1], 6.42 in [2] and 5.77 in data set [3].
As to `O=C(CCCCCCN1C(=O)C/C(=C\c2ccc(Cl)c(Cl)c2)C1=O)NO`, the pIC50 in [1] was 7.55; in data set [2], 6.36; in data set [3], 5.77.
The like results for `O=C(CCCCN1C(=O)C/C(=C\c2ccccc2)C1=O)NO` were, in that order, 6.87, less than 4.70 and less than 4.70.
On to `Nc1cc(F)ccc1NC(=O)CCCCCN1C(=O)C/C(=C\c2ccccc2)C1=O`, for which the pIC50 in [1] is 6.98; in data set [2], 4.96; in [3], less than 4.70.
The like results for `CN(C)c1ccc(/C=C2\CC(=O)N(CCCCCCC(=O)NO)C2=O)cc1` were, in that order, 7.57, 6.04 and 5.76.
Taken in the same sequence, the figures for `COc1cccc(/C=C2\CC(=O)N(CCCCCCC(=O)NO)C2=O)c1` were 7.73, 6.40 and 6.04.
Taken in the same sequence, the figures for `COc1cc(/C=C2\CC(=O)N(CCCCCCC(=O)NO)C2=O)cc(OC)c1OC` were 7.56, 5.99 and 5.77.
On to `Cc1ccc(/C=C2\CC(=O)N(CCCCCCC(=O)NO)C2=O)cc1`, for which the pIC50 in data set [1] is 7.59; in data set [2] it was 6.51; in [3] it was 5.66.
Regarding `O=C(CCCCCCN1C(=O)C/C(=C\c2ccccc2Cl)C1=O)NO`, the pIC50 was 7.71 in data set [1], 6.32 in data set [2] and 5.84 in [3].

The record behind these values is ChEMBL document CHEMBL5512640, “Discovery of novel itaconimide-based derivatives as potent HDAC inhibitors for the efficient treatment of prostate cancer” (Eur J Med Chem, 2024).
